We go through one compound from ChEMBL document CHEMBL1147398, “New structures and bioactivity patterns of bengazole alkaloids from a choristid marine sponge” (1993).

One assay deals with COLO 205. In words: Cytotoxicity against human COLO205 cells. The format is functional.
The test system of a further assay is SK-MEL-5. In words: Cytotoxicity against human SK-MEL-5 cells. The format is functional.
Setting [1] is: read-out: LC50 (the source's name).

A word on the GI50: it is the concentration at which growth is held to half of that of the control. High values mean lower sensitivity of the cells, low ones greater sensitivity of the cells. By TGI is commonly meant the concentration at which net growth stops. Low values mean more potent growth arrest, high ones less potent growth arrest.

Consider `CCCCCCCCCCCCCC(=O)O[C@@H](c1cnco1)c1nc([C@@H](O)C[C@@H](O)[C@@H](O)[C@@H](C)O)co1` [BENGAZOLE A], for which the 50% growth inhibitory concentration (GI50) in the assay on COLO 205 came out at 0.181 µM; with SK-MEL-5, 1.13 µM. The concentration for total growth inhibition (TGI) with COLO 205 came to 1.5 µM; with SK-MEL-5, 4.83 µM. Also, the CC50 with COLO 205 (setting [1]) is 5.25 µM; in the assay with SK-MEL-5 (setting [1]), 4.83 µM.
